Measurements reported in PubChem BioAssay AID1259407 (Chemical Carcinogenesis Research Information System (CCRIS), 2018).
Calls of active or inactive are those of the source. The rule behind the calls is not given here.

System: CCRIS mutagenicity, Ames/micronucleus/aberration tests
Experiment: CCRIS mutagenicity studies
[1] = Test System: AMES SALMONELLA TYPHIMURIUM, Strain/Indicator: TA98, Metabolic Activation: NONE, Method: STANDARD PLATE
[2] = Test System: AMES SALMONELLA TYPHIMURIUM, Strain/Indicator: TA100, Metabolic Activation: NONE, Method: STANDARD PLATE
[3] = Test System: AMES SALMONELLA TYPHIMURIUM, Strain/Indicator: TA98, Metabolic Activation: RAT, LIVER, S-9, AROCLOR 1254, Method: STANDARD PLATE
[4] = Test System: AMES SALMONELLA TYPHIMURIUM, Strain/Indicator: TA100, Metabolic Activation: RAT, LIVER, S-9, AROCLOR 1254, Method: STANDARD PLATE

In the case of `Nc1cc(S(=O)(=O)O)cc2c1C(=O)/C(=N/Nc1ccc(-c3ccc(N/N=C4/C(=O)c5c(N)cc(S(=O)(=O)O)cc5C=C4S(=O)(=O)O)cc3)cc1)C(S(=O)(=O)O)=C2`, the mutagenic call (End Point: IN VITRO CHROMOSOMAL ABERRATIONS, Test System: CHINESE HAMSTER OVARY CELLS, Metabolic Activation: NONE) is reported as “inactive; negative”, the mutagenic call (End Point: IN VITRO CHROMOSOMAL ABERRATIONS, Test System: CHINESE HAMSTER OVARY CELLS, Metabolic Activation: RAT, LIVER, S-9, AROCLOR 1254) is reported as “inactive; negative” and the mutagenic call (Test System: AMES SALMONELLA TYPHIMURIUM, Strain/Indicator: TA98, Metabolic Activation: HAMSTER, LIVER, S-9, Method: PREINCUBATION (PRIVAL METHOD)) is reported as “active; positive”. The mutagenic call [1] was “inactive; negative”, the mutagenic call (Test System: AMES SALMONELLA TYPHIMURIUM, Strain/Indicator: TA98, Metabolic Activation: RAT, LIVER, S-9, PHENOBARBITAL, Method: STANDARD PLATE) was “inactive; negative” and the mutagenic call (Test System: AMES SALMONELLA TYPHIMURIUM, Strain/Indicator: TA100, Metabolic Activation: HAMSTER, LIVER, S-9, Method: PREINCUBATION (PRIVAL METHOD)) was “active; positive”. For the same compound, the mutagenic call [2] was “active; positive”, the mutagenic call (Test System: AMES SALMONELLA TYPHIMURIUM, Strain/Indicator: TA100, Metabolic Activation: RAT, LIVER, S-9, PHENOBARBITAL, Method: STANDARD PLATE) was “inactive; negative” and the mutagenic call (Test System: AMES SALMONELLA TYPHIMURIUM, Strain/Indicator: TA1538, Metabolic Activation: RAT, LIVER, S-9, AROCLOR 1254, Method: STANDARD PLATE) was “inactive; negative”. For the same compound, the mutagenic call (Test System: Mouse lymphoma, Strain/Indicator: L5178Y (tk+/tk-), Metabolic Activation: None, Method: Suspension/plate) was “inactive; negative” and the mutagenic call (Test System: Mouse lymphoma, Strain/Indicator: L5178Y (tk+/tk-), Metabolic Activation: Rat, Liver, S-9, Aroclor 1254, Method: Suspension/plate) was “inactive; equivocal (previous results negative)”.
In the case of `Cc1ccc2c(c1)C(C)c1cc(C)ccc1-2`, the mutagenic call [3] is reported as “inactive; negative” and the mutagenic call [4] is reported as “inactive; negative”.
`NC(=O)NCC(=O)O` was tested, and the mutagenic call (Test System: AMES SALMONELLA TYPHIMURIUM, Strain/Indicator: TA97, Metabolic Activation: NONE, Method: STANDARD PLATE) was “inactive; negative”, the mutagenic call (Test System: AMES SALMONELLA TYPHIMURIUM, Strain/Indicator: TA97, Metabolic Activation: RAT, LIVER, S-9, AROCLOR 1254, Method: STANDARD PLATE) was “inactive; negative” and the mutagenic call [1] was “inactive; negative”. For the same compound, the mutagenic call [3] was “inactive; negative”, the mutagenic call [2] was “inactive; negative” and the mutagenic call [4] was “inactive; negative”. For the same compound, the mutagenic call (Test System: AMES SALMONELLA TYPHIMURIUM, Strain/Indicator: TA102, Metabolic Activation: NONE, Method: STANDARD PLATE) was “inactive; negative” and the mutagenic call (Test System: AMES SALMONELLA TYPHIMURIUM, Strain/Indicator: TA102, Metabolic Activation: RAT, LIVER, S-9, AROCLOR 1254, Method: STANDARD PLATE) was “inactive; negative”.
With `CC(=O)O[C@@H]1[C@@H](O)[C@H](O[C@H]2[C@H](OC(=O)[C@H]3CC[C@@H]4[C@H](C3)O[C@@]3(C[C@H](OC(=O)/C=C/c5ccccc5)[C@H](C)CO3)[C@]43CO3)O[C@H](C)[C@@H](O)[C@@H]2OC(C)=O)O[C@H](C)[C@H]1O` the mutagenic call (Test System: AMES SALMONELLA TYPHIMURIUM, Strain/Indicator: TA98, Metabolic Activation: HAMSTER, LIVER, S-9, AROCLOR 1254, Method: STANDARD PLATE) was “inactive; negative”, the mutagenic call [1] was “inactive; negative” and the mutagenic call [3] was “inactive; negative”. For the same compound, the mutagenic call (Test System: AMES SALMONELLA TYPHIMURIUM, Strain/Indicator: TA100, Metabolic Activation: HAMSTER, LIVER, S-9, AROCLOR 1254, Method: STANDARD PLATE) was “inactive; negative”, the mutagenic call [2] was “inactive; negative” and the mutagenic call [4] was “inactive; negative”. For the same compound, the mutagenic call (Test System: AMES SALMONELLA TYPHIMURIUM, Strain/Indicator: TA1535, Metabolic Activation: HAMSTER, LIVER, S-9, AROCLOR 1254, Method: STANDARD PLATE) was “inactive; negative”, the mutagenic call (Test System: AMES SALMONELLA TYPHIMURIUM, Strain/Indicator: TA1535, Metabolic Activation: NONE, Method: STANDARD PLATE) was “inactive; negative” and the mutagenic call (Test System: AMES SALMONELLA TYPHIMURIUM, Strain/Indicator: TA1535, Metabolic Activation: RAT, LIVER, S-9, AROCLOR 1254, Method: STANDARD PLATE) was “inactive; negative”. For the same compound, the mutagenic call (Test System: AMES SALMONELLA TYPHIMURIUM, Strain/Indicator: TA1537, Metabolic Activation: HAMSTER, LIVER, S-9, AROCLOR 1254, Method: STANDARD PLATE) was “inactive; negative”, the mutagenic call (Test System: AMES SALMONELLA TYPHIMURIUM, Strain/Indicator: TA1537, Metabolic Activation: NONE, Method: STANDARD PLATE) was “inactive; negative” and the mutagenic call (Test System: AMES SALMONELLA TYPHIMURIUM, Strain/Indicator: TA1537, Metabolic Activation: RAT, LIVER, S-9, AROCLOR 1254, Method: STANDARD PLATE) was “inactive; negative”.
